US12077503B2, “Substituted cyclic amides and their use as herbicides” (FMC CORPORATION, priority 2015, dated 2024)

Columns and labels:
Format in all cases: in vivo
[1] = test system: barnyardgrass (Echinochloa crus-galli); assay: Test A preemergence; details: for Barnyardgrass plant response rating (0 to 100 scale): Preemergence, 0 is no effect, 100 is complete control
Procedure, shortened: (§1)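 Visual injury, scored on a 0–100 scale relative to untreated controls, was recorded about 10 d after application. Treatments were a preemergence soil spray over planted seeds or a postemergence spray on plants at the one- to two-leaf stage, 2 to 10 cm tall, all in loam soil–sand blend in the greenhouse.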

corn (Zea mays) [2] = assay: Test A preemergence; details: for Corn plant response rating (0 to 100 scale): Preemergence, 0 is no effect, 100 is complete control
Procedure, shortened: as §1

[3] = test system: crabgrass, large (Digitaria sanguinalis); assay: Test A preemergence; details: for Crabgrass, Large plant response rating (0 to 100 scale): Preemergence, 0 is no effect, 100 is complete control
Procedure, shortened: as §1

[4] = test system: giant foxtail (Setaria faberii); assay: Test A preemergence; details: for Foxtail, Giant plant response rating (0 to 100 scale): Preemergence, 0 is no effect, 100 is complete control
Procedure, shortened: as §1

[5] = test system: morningglory (Ipomoea spp.); assay: Test A preemergence; details: for Morningglory plant response rating (0 to 100 scale): Preemergence, 0 is no effect, 100 is complete control
Procedure, shortened: as §1

[6] = test system: pigweed (Amaranthus retroflexus); assay: Test A preemergence; details: for Pigweed plant response rating (0 to 100 scale): Preemergence, 0 is no effect, 100 is complete control
[7] = test system: velvetleaf (Abutilon theophrasti); assay: Test A preemergence; details: for Velvetleaf plant response rating (0 to 100 scale): Preemergence, 0 is no effect, 100 is complete control
Procedure, shortened: as §1

[8] = test system: wheat (Triticum aestivum); assay: Test A preemergence; details: for Wheat plant response rating (0 to 100 scale): Preemergence, 0 is no effect, 100 is complete control
Procedure, shortened: as §1

[9] = test system: barnyardgrass (Echinochloa crus-galli); assay: Test A postemergence
Procedure, shortened: as §1

corn (Zea mays) [10] = assay: Test A postemergence
Procedure, shortened: as §1

[11] = test system: crabgrass, large (Digitaria sanguinalis); assay: Test A postemergence
Procedure, shortened: as §1

[12] = test system: giant foxtail (Setaria faberii); assay: Test A postemergence
Procedure, shortened: as §1

[13] = test system: morningglory (Ipomoea spp.); assay: Test A postemergence
Procedure, shortened: as §1

[14] = test system: pigweed (Amaranthus retroflexus); assay: Test A postemergence
Procedure, shortened: as §1

[15] = test system: velvetleaf (Abutilon theophrasti); assay: Test A postemergence
Procedure, shortened: as §1

[16] = test system: wheat (Triticum aestivum); assay: Test A postemergence
Procedure, shortened: as §1

[17] = test system: barnyardgrass (Echinochloa crus-galli); assay: Test B flooded paddy test; details: Flood, 250 g ai/ha; 0 to 100 scale where 0 is no effect and 100 is complete control; 13 to 15 d
Procedure, shortened: (§2)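 Visual ratings (0 none to 100 complete control) are relative to untreated plants, taken 13–15 d after treatment in a greenhouse. Test material went straight into floodwater standing 3 cm above the soil, kept constant, on plants at the 2-leaf stage.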

[18] = test system: ducksalad (Heteranthera limosa); assay: Test B flooded paddy test; details: Flood, 250 g ai/ha; 0 to 100 scale where 0 is no effect and 100 is complete control; 13 to 15 d
Procedure, shortened: as §2

rice (Oryra sativa) = assay: Test B flooded paddy test; details: Flood, 250 g ai/ha; 0 to 100 scale where 0 is no effect and 100 is complete control; 13 to 15 d
Procedure, shortened: as §2

[19] = test system: sedge, umbrella (small-flower umbrella sedge, Cyperus difformis); assay: Test B flooded paddy test; details: Flood, 250 g ai/ha; 0 to 100 scale where 0 is no effect and 100 is complete control; 13 to 15 d
Procedure, shortened: as §2

[20] = 1000 g ai/ha, postemergence, 0 to 100 scale, 0 no effect, 100 complete control
[21] = 125 g ai/ha, preemergence, 0 to 100 scale (0 no effect, 100 complete control)
[22] = 500 g ai/ha, postemergence, 0 to 100 scale, 0 no effect, 100 complete control
[23] = Postemergence, 125 g ai/ha, visual injury, 0 to 100 scale (0 no effect, 100 complete control), approx. 10 d

Nc1c(NC(=O)C2C(=O)NCC2c2ccc(F)c(F)c2)ccc(F)c1F (racemic) [Compound 358]
0: Barnyardgrass plant response rating (0 to 100 scale) ([1]; 1000 g ai/ha) | Corn plant response rating (0 to 100 scale) (corn (Zea mays) [2]; 1000 g ai/ha) | Foxtail, Giant plant response rating (0 to 100 scale) ([4]; 1000 g ai/ha) | Morningglory plant response rating (0 to 100 scale) ([5]; 1000 g ai/ha) | Pigweed plant response rating (0 to 100 scale) ([6]; 1000 g ai/ha) | Velvetleaf plant response rating (0 to 100 scale) ([7]; 1000 g ai/ha) | Wheat plant response rating (0 to 100 scale) ([8]; 1000 g ai/ha) | Plant response rating, Barnyardgrass [9, 20] | Plant response rating, Corn (corn (Zea mays) [10]; [20]) | Plant response rating, Morningglory [13, 20] | Plant response rating, Pigweed [14, 20] | Plant response rating, Velvetleaf [15, 20] | Plant response rating, Wheat [16, 20]
50: Crabgrass, Large plant response rating (0 to 100 scale) ([3]; 1000 g ai/ha)
30: Plant response rating, Foxtail, Giant [12, 20]
40: Plant response rating, Crabgrass, Large [11, 20]

Cn1nccc1NC(=O)C1C(=O)NCC1c1ccc(F)c(F)c1 (racemic) [Compound 362]
0: Plant response rating, Barnyardgrass [1, 21] | Barnyardgrass plant response rating (0 to 100 scale) ([1]; 500 g ai/ha) | Plant response rating, Corn (corn (Zea mays) [2]; [21]) | Corn plant response rating (0 to 100 scale) (corn (Zea mays) [2]; 500 g ai/ha) | Plant response rating, Crabgrass, Large [3, 21] | Crabgrass, Large plant response rating (0 to 100 scale) ([3]; 500 g ai/ha) | Plant response rating, Foxtail, Giant [4, 21] | Foxtail, Giant plant response rating (0 to 100 scale) ([4]; 500 g ai/ha) | Plant response rating, Morningglory [5, 21] | Morningglory plant response rating (0 to 100 scale) ([5]; 500 g ai/ha) | Plant response rating, Pigweed [6, 21] | Pigweed plant response rating (0 to 100 scale) ([6]; 500 g ai/ha) | Plant response rating, Velvetleaf [7, 21] | Velvetleaf plant response rating (0 to 100 scale) ([7]; 500 g ai/ha) | Plant response rating, Wheat [8, 21] | Wheat plant response rating (0 to 100 scale) ([8]; 500 g ai/ha) | Plant response rating, Barnyardgrass [9, 22] | Plant response rating, Barnyardgrass [9, 23] | Plant response rating, Corn (corn (Zea mays) [10]; [22]) | Plant response rating, Corn (corn (Zea mays) [10]; [23]) | Plant response rating, Crabgrass, Large [11, 22] | Plant response rating, Crabgrass, Large [11, 23] | Plant response rating, Foxtail, Giant [12, 22] | Plant response rating, Foxtail, Giant [12, 23] | Plant response rating, Morningglory [13, 22] | Plant response rating, Morningglory [13, 23] | Plant response rating, Pigweed [14, 22] | Plant response rating, Pigweed [14, 23] | Plant response rating, Velvetleaf [15, 22] | Plant response rating, Velvetleaf [15, 23] | Plant response rating, Wheat [16, 22] | Plant response rating, Wheat [16, 23] | Plant response rating, Barnyardgrass [17] | Plant response rating, Ducksalad [18] | Plant response rating, Rice (rice (Oryra sativa)) | Plant response rating, Sedge, Umbrella [19]
